Experimental data published in ChEMBL document CHEMBL4673292, “Design, synthesis and anticancer activity of 2-amidomethoxy-1,4-naphthoquinones and its conjugates with Biotin/polyamine” (Bioorg Med Chem Lett, 2021).

Columns and labels:
COLO 205 = assay: Antiproliferative activity against human COLO205 cells; format: functional, cell-based
K562 = assay: Antiproliferative activity against human K562 cells; format: functional, cell-based
T47D = assay: Antiproliferative activity against human T47D cells; format: functional, cell-based
[1] = Selectivity index, ratio of IC50 for human CCD-18Co cells to IC50 for human COLO 205 cells
[2] = Selectivity index, ratio of IC50 for human CCD-18Co cells to IC50 for human T47D cells
[3] = Selectivity index, ratio of IC50 for human CCD-18Co cells to IC50 for human K562 cells
CCD-18Co = assay: Cytotoxicity against human CCD-18Co cells; format: cell-based

Row | SMILES | IC50 (COLO 205) [µM] | IC50 (K562) [µM] | IC50 (T47D) [µM] | Ratio IC50 [1] | Ratio IC50 [2] | Ratio IC50 [3] | IC50 (CCD-18Co) [µM]
1 | CC(=O)NCCCCCCNC(=O)COC1=CC(=O)c2c(O)cccc2C1=O | 2.4 | 2.3 | 1.2 | – | – | – | –
2 | NCCNC(=O)COC1=CC(=O)c2c(O)cccc2C1=O | 4.7 | 4.1 | 2.8 | – | – | – | –
3 | O=C(CCCCC1SCC2NC(=O)NC21)NCCCCCCNC(=O)COC1=CC(=O)c2c(O)cccc2C1=O (centres undefined) | 1.4 | 1.1 | 0.5 | >10 | >10 | >10 | 9.2
4 | NCCCCC(CN)CNC(=O)COC1=CC(=O)c2c(O)cccc2C1=O (centres undefined) | 7.3 | > 10 | 9.6 | – | – | – | –
5 | NCCCCCCNC(=O)COC1=CC(=O)c2ccccc2C1=O | > 10 | > 10 | 6.5 | – | – | – | –
6 | COC(=O)CCCCCNC(=O)COC1=CC(=O)c2c(O)cccc2C1=O | 4.4 | 4.9 | 3.6 | – | – | – | –
7 | O=C1NC2CSC(CCCCC(=O)N3CCN(C(=O)COC4=CC(=O)c5ccccc5C4=O)CC3)C2N1 (centres undefined) | 2.3 | 1.5 | 1.2 | – | – | – | –
8 | CC(C)(C)OC(=O)NCCCCCCNC(=O)COC1=CC(=O)c2c(O)cccc2C1=O | 1.3 | 1 | 0.3 | >10 | >10 | >10 | 7.3
9 | NCCCC(=O)NCCCCNC(=O)COC1=CC(=O)c2c(O)cccc2C1=O.O=C(O)C(F)(F)F.O=C(O)C(F)(F)F | 1.2 | 1.7 | 1.7 | >10 | >10 | >10 | 8.3
10 | O=C(O)C(F)(F)F.O=C1C(OCC(=O)N2CCNCC2)=CC(=O)c2c(O)cccc21 | 0.8 | 0.5 | 0.6 | >10 | >10 | >10 | 8.9
11 | NCC(CN)CCCCNC(=O)COC1=CC(=O)c2c(O)cccc2C1=O | 5.3 | 5.1 | 6.1 | – | – | – | –
12 | CC(C)(C)OC(=O)NCCCCCCNC(=O)COC1=CC(=O)c2ccccc2C1=O | > 10 | 6.7 | > 10 | – | – | – | –
13 | CC(C)(C)OC(=O)N1CCN(C(=O)COC2=CC(=O)c3c(O)cccc3C2=O)CC1 | 2.3 | 1.2 | 0.8 | – | – | – | –
14 | CC(C)(C)OC(=O)NCCNC(=O)COC1=CC(=O)c2c(O)cccc2C1=O | 1.4 | 1.1 | 0.1 | – | – | – | –
15 | O=C(CCCCC1SCC2NC(=O)NC21)NCCCCCCNC(=O)COC1=CC(=O)c2ccccc2C1=O (centres undefined) | > 10 | > 10 | 1.8 | – | – | – | –
16 | CC(C)(C)OC(=O)NCC(CCCCNC(=O)COC1=CC(=O)c2c(O)cccc2C1=O)NC(=O)OC(C)(C)C (centres undefined) | 1.6 | 1.1 | 1.1 | – | – | – | –
17 | CC(C)(C)OC(=O)NCCCCC(CNC(=O)COC1=CC(=O)c2c(O)cccc2C1=O)NC(=O)OC(C)(C)C (centres undefined) | 3.1 | 1.3 | 1.4 | – | – | – | –
18 | NCCCCCCNC(=O)COC1=CC(=O)c2c(O)cccc2C1=O.O=C(O)C(F)(F)F | 0.8 | 0.8 | 0.6 | >10 | >10 | >10 | 8.6
19 | O=C(CCCCC1SCC2NC(=O)NC21)NCCNC(=O)COC1=CC(=O)c2c(O)cccc2C1=O (centres undefined) | > 10 | – | > 10 | – | – | – | –
20 | CCCCCCCNC(=O)COC1=CC(=O)c2c(O)cccc2C1=O | > 10 | 5.7 | 4.6 | – | – | – | –
21 | O=C(COC1=CC(=O)c2c(O)cccc2C1=O)NCCCCCCO | 2.8 | 3.3 | 3.3 | – | – | – | –
22 | CC(C)(C)OC(=O)NCC(CCCCNC(=O)COC1=CC(=O)c2c(O)cccc2C1=O)CNC(=O)CCCCC1SCC2NC(=O)NC21 (racemic) | – | > 10 | 7.9 | – | – | – | –
